The values that follow come from patent US10173971B2, “Picolinamides with fungicidal activity” (DOW AGROSCIENCES LLC, priority 2014, dated 2019).

The subject of one assay is Zymoseptoria tritici. The assay can be described thus: Fungicidal activity: leaf blotch of wheat (SEPTTR), wheat seedlings, booth sprayer to run-off or track spray. The class given is in vivo. Conditions: Low-Volume Cereal Activity at 121.5 g/H.
Another assay relates to Puccinia triticina. Kind of assay: Fungicidal activity: wheat brown rust (PUCCRT), wheat seedlings, booth sprayer to run-off or track spray. The class given is in vivo. The note with it: Low-Volume Cereal Activity at 121.5 g/H.
Where [1] appears, read: 24 h, 1 Day Protectant, read-out: SEPTTR 1DP.
[2] abbreviates: 72 h, 3 Day Curative, read-out: SEPTTR 3DC.
Setting [3] is: 24 h, 1 Day Protectant, read-out: PUCCRT 1DP.
Where [4] appears, read: 72 h, 3 Day Curative, read-out: PUCCRT 3DC.

Where two headings read alike, the source gives them in different places.

Regarding `CCOCC(=O)OCOc1c(OC)ccnc1C(=O)N[C@@H](C)C(=O)O[C@@H](C)[C@@H](COCc1ccccc1)Cc1ccccc1` [compound 234], the pest or weed control at 121.5 g/ha with Zymoseptoria tritici (setting [1]) fell in the range of 0 to 80%; in the assay with Zymoseptoria tritici (setting [2]), 80 to 100%; in the assay with Puccinia triticina (setting [3]), 80 to 100%; in the assay with Puccinia triticina (setting [4]) it was 80 to 100%.
For the molecule `CCOCC(=O)OCOc1c(OC)ccnc1C(=O)N[C@@H](C)C(=O)O[C@@H](C)[C@H](Cc1ccc(F)cc1)C(C)(C)OCc1ccccc1` [compound 235], the pest or weed control at 121.5 g/ha is 80 to 100% in the assay on Zymoseptoria tritici (setting [1]), 0 to 80% in the assay with Zymoseptoria tritici (setting [2]), 80 to 100% in the assay on Puccinia triticina (setting [3]) and 0 to 80% with Puccinia triticina (setting [4]).
Take `CCOCC(=O)OCOc1c(OC)ccnc1C(=O)N[C@@H](C)C(=O)O[C@@H](C)[C@H](Cc1ccccc1)C(C)(C)OCc1ccccc1` [compound 236]: the pest or weed control at 121.5 g/ha fell in the range of 80 to 100% in the assay with Zymoseptoria tritici (setting [1]), 0 to 80% in the assay with Zymoseptoria tritici (setting [2]), 80 to 100% in the assay with Puccinia triticina (setting [3]) and 0 to 80% with Puccinia triticina (setting [4]).
`CCOCC(=O)OCOc1c(OC)ccnc1C(=O)N[C@@H](C)C(=O)O[C@@H](C)[C@@H](COC)Cc1ccc(F)cc1` [compound 237]: the pest or weed control at 121.5 g/ha in the assay on Zymoseptoria tritici (setting [1]) fell in the range of 0 to 80%; in the assay on Zymoseptoria tritici (setting [2]) it was 0 to 80%; with Puccinia triticina (setting [3]), 80 to 100%; in the assay with Puccinia triticina (setting [4]), 80 to 100%.
Turning to `CCOCC(=O)OCOc1c(OC)ccnc1C(=O)N[C@@H](C)C(=O)O[C@@H](C)[C@H](Cc1ccc(F)cc1)C(C)(C)OC` [compound 238], the pest or weed control at 121.5 g/ha lay within 0 to 80% in the assay on Zymoseptoria tritici (setting [1]), 0 to 80% with Zymoseptoria tritici (setting [2]), 80 to 100% in the assay on Puccinia triticina (setting [3]) and 0 to 80% with Puccinia triticina (setting [4]).
Take `COc1ccnc(C(=O)N[C@@H](C)C(=O)O[C@@H](C)[C@@H](COCc2ccccc2)Cc2ccc(F)cc2)c1OCOC(C)=O` [compound 239]: the pest or weed control at 121.5 g/ha fell in the range of 80 to 100% with Zymoseptoria tritici (setting [1]), 0 to 80% in the assay on Zymoseptoria tritici (setting [2]), 80 to 100% with Puccinia triticina (setting [3]) and 0 to 80% in the assay on Puccinia triticina (setting [4]).
Regarding `COc1ccnc(C(=O)N[C@@H](C)C(=O)O[C@@H](C)[C@H](Cc2ccc(F)cc2)C(C)(C)OCc2ccccc2)c1OCOC(C)=O` [compound 241], the pest or weed control at 121.5 g/ha fell in the range of 80 to 100% in the assay with Zymoseptoria tritici (setting [1]), 80 to 100% in the assay with Zymoseptoria tritici (setting [2]), 80 to 100% with Puccinia triticina (setting [3]) and 0 to 80% in the assay on Puccinia triticina (setting [4]).
Turning to `COC[C@@H](Cc1ccc(F)cc1)[C@H](C)OC(=O)[C@H](C)NC(=O)c1nccc(OC)c1OCOC(C)=O` [compound 243], the pest or weed control at 121.5 g/ha fell in the range of 0 to 80% in the assay on Zymoseptoria tritici (setting [1]), 0 to 80% with Zymoseptoria tritici (setting [2]), 80 to 100% in the assay on Puccinia triticina (setting [3]) and 80 to 100% with Puccinia triticina (setting [4]).
As to `COc1ccnc(C(=O)N[C@@H](C)C(=O)O[C@@H](C)[C@H](Cc2ccc(F)cc2)C(C)(C)OC)c1OCOC(C)=O` [compound 244], the pest or weed control at 121.5 g/ha was 0 to 80% in the assay on Zymoseptoria tritici (setting [1]), 80 to 100% in the assay on Zymoseptoria tritici (setting [2]), 80 to 100% in the assay with Puccinia triticina (setting [3]) and 80 to 100% in the assay with Puccinia triticina (setting [4]).
Turning to `COc1ccnc(C(=O)N[C@@H](C)C(=O)O[C@@H](C)[C@H](Cc2ccccc2)C(C)(C)OC)c1OCOC(C)=O` [compound 245], the results for the pest or weed control at 121.5 g/ha in the assay with Zymoseptoria tritici (setting [2]), in the assay on Puccinia triticina (setting [3]) and in the assay on Puccinia triticina (setting [4]) were 0 to 80%, 80 to 100% and 80 to 100%, respectively.
Turning to `COc1ccnc(C(=O)N[C@@H](C)C(=O)O[C@@H](C)[C@@H](COCc2ccc(F)cc2)Cc2ccc(F)cc2)c1OC(C)=O` [compound 246], the pest or weed control at 121.5 g/ha in the assay on Zymoseptoria tritici (setting [1]) lay within 80 to 100%; in the assay on Zymoseptoria tritici (setting [2]) it was 0 to 80%; with Puccinia triticina (setting [3]), 0 to 80%; in the assay with Puccinia triticina (setting [4]), 0 to 80%.
In the case of `COc1ccnc(C(=O)N[C@@H](C)C(=O)O[C@@H](C)[C@H](Cc2ccc(F)cc2)C(C)(C)OCc2ccc(F)cc2)c1OC(C)=O` [compound 247], the pest or weed control at 121.5 g/ha in the assay with Zymoseptoria tritici (setting [1]), with Zymoseptoria tritici (setting [2]) and in the assay with Puccinia triticina (setting [3]) was 0 to 80% each time.
